The structures appear in SMILES notation.

The values below come from US20050120493A1, “Process for exchanging the anions of cationic compounds” (priority 2002, published 2005).

The series is described as follows: solubility in water of the dye salts before and after anion exchange. Format: physicochemical. Particulars: salt form of the cationic dye as given per example.

For `Cn1cc[n+](C)c1N=Nc1ccc(N)cc1.[Cl-]`, the water solubility came out at 3.7%.

Turning to `COc1ccc(Nc2ccc(/N=N/c3n(C)cc[n+]3C)cc2)cc1.[Cl-]`, the water solubility is 0.35%.

Take `CCN(CC)c1ccc2nc3ccc(=[N+](CC)CC)cc-3oc2c1`: the water solubility result is on record as “less than 0.4%”.

For `Cn1cc[n+](C)c1/N=N/c1ccc(NCCCCCCNc2ccc(/N=N/c3n(C)cc[n+]3C)cc2)cc1.[Cl-].[Cl-]`, the water solubility is less than 0.03%.
